# Data from ChEMBL document CHEMBL1201862, “PubChem BioAssay data set” (2004).
# Activity calls are given as the source filed them.
# Experiments:
# [1] = biological target: T1, Sentrin-specific protease 8 (Homo sapiens, UniProt Q96LD8); assay type: functional
# T1 sequence (Q96LD8 whole entry): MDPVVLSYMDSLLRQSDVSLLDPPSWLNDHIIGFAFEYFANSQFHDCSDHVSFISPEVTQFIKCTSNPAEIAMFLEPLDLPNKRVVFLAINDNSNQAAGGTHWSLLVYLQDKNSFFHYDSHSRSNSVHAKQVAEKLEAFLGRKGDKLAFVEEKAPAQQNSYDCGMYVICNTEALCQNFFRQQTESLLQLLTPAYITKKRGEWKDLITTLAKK
# [2] = biological target: T2, Replicative DNA helicase DnaB (Mycobacterium tuberculosis, UniProt P9WMR3); test: DnaB intein splicing inhibitors, dose response, biochemical, cell-free fluorescence (AID 449749); assay type: functional
# T2 sequence (P9WMR3 whole entry): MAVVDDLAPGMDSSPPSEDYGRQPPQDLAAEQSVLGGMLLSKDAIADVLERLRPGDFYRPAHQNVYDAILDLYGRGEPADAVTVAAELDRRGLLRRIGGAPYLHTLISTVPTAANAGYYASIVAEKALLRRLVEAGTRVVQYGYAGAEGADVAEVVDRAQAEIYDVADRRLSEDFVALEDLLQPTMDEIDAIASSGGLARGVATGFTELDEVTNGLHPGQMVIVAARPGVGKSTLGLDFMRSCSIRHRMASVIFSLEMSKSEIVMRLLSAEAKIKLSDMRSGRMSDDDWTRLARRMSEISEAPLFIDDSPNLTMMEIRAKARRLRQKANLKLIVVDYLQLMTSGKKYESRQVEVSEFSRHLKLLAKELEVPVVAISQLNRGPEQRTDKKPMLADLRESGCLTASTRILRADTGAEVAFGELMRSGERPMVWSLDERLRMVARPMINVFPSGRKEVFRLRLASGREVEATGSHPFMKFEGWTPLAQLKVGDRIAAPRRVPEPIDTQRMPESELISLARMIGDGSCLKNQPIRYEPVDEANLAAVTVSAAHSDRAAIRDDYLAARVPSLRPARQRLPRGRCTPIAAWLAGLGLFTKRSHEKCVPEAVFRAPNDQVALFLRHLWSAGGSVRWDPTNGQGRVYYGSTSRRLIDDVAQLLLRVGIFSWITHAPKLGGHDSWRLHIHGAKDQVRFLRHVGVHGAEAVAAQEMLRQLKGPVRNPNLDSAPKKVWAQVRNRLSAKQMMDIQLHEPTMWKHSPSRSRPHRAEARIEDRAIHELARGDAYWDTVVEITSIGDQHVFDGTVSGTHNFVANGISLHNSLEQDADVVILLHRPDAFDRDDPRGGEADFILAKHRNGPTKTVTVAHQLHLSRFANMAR
# [3] = biological target: T1, Sentrin-specific protease 8; assay type: functional; remark: listed apart in the source
# [4] = biological target: T3, Protein RecA (Mycobacterium tuberculosis, UniProt P9WHJ3); test: Fluorescence Cell-Free Homogeneous Dose Retest to Identify Inhibitors of RecA-Intein Splicing Activity. [Related pubchem assays (depositor defined):AID2097, AID2223, AID489010, AID492950]; assay type: functional
# T3 sequence (P9WHJ3 whole entry): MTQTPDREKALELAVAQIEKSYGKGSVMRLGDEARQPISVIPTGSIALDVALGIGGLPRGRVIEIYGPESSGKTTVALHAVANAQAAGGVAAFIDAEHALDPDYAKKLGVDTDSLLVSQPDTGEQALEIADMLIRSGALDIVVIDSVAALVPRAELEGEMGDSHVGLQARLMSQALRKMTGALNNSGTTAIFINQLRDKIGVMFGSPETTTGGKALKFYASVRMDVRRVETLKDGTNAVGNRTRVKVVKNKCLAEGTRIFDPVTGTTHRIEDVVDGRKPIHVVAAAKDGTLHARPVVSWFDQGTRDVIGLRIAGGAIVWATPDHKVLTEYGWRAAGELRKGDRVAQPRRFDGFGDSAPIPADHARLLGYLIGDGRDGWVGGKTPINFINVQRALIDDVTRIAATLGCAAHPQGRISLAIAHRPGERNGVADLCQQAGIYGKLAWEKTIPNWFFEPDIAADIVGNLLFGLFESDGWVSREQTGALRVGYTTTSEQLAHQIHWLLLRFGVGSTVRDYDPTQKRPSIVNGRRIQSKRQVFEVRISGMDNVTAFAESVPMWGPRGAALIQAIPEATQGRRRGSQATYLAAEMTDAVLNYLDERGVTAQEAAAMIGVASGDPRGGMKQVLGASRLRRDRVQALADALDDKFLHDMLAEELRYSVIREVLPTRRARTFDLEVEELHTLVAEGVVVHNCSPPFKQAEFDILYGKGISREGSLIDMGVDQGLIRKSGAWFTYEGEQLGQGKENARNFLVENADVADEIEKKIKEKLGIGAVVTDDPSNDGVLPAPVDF
# [5] = biological target: Beta-galactosidase (Escherichia coli, UniProt Q8VNN2); test: PubChem AID 485352; assay type: functional
# Beta-galactosidase, sequence (Q8VNN2 whole entry): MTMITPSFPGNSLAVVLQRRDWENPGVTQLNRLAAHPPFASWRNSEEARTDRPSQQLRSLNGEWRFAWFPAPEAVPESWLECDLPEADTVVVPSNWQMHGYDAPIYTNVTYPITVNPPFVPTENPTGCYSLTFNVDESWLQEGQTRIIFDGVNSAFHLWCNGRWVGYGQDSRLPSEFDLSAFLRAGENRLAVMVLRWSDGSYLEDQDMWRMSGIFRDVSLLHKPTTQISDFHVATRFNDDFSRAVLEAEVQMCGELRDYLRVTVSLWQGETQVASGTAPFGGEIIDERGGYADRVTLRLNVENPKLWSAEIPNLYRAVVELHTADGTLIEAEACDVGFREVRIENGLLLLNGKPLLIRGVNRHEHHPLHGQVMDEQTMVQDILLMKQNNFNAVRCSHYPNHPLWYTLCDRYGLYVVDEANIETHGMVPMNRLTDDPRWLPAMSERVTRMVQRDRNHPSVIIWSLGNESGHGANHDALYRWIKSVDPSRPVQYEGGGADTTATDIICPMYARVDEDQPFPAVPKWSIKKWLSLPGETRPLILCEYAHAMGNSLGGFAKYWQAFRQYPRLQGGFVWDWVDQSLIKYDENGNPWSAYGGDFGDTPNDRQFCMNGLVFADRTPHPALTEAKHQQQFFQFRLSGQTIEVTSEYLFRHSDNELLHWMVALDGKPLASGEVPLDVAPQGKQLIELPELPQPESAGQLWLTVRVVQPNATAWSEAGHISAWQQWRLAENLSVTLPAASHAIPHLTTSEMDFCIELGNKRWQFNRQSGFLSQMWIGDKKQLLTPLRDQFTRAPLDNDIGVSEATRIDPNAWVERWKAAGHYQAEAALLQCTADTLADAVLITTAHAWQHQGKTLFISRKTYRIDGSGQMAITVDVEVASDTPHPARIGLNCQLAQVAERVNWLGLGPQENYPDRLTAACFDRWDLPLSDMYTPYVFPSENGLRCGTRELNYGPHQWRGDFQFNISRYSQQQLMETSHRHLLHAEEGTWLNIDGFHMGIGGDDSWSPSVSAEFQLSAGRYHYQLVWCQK
# [6] = biological target: Cytochrome P450 2D6 (Homo sapiens, UniProt P10635);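 further: CYP2D6 member of a cytochrome P450 panel assay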
# Cytochrome P450 2D6, sequence (P10635 whole entry): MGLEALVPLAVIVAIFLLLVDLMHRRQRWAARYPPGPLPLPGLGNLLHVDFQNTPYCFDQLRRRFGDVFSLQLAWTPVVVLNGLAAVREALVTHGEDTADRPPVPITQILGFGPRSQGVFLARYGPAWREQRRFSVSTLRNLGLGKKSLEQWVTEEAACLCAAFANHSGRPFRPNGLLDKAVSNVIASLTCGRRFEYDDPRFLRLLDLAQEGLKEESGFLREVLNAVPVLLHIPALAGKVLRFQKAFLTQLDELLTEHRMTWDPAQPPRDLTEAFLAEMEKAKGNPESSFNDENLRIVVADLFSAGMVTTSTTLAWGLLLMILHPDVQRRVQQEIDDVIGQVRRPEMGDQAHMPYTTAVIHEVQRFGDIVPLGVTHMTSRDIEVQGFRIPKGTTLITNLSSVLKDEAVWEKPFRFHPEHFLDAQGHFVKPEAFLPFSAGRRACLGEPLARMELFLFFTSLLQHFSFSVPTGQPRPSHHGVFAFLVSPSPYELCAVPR
# [7] = biological target: Cytochrome P450 2C9 (Homo sapiens, UniProt P11712)
# Cytochrome P450 2C9, sequence (P11712 whole entry): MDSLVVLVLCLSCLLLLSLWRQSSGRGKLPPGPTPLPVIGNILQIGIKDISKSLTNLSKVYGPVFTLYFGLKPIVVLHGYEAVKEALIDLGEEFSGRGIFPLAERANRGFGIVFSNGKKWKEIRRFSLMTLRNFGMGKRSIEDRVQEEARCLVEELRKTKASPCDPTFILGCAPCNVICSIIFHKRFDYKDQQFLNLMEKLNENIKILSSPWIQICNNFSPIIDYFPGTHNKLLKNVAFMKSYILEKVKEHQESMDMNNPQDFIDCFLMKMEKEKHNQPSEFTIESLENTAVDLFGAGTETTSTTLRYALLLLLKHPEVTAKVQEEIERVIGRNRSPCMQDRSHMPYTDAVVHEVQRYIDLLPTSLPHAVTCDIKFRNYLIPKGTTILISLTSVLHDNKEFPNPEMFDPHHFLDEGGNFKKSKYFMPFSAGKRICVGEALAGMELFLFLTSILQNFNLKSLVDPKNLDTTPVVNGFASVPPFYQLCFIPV
# [8] = biological target: T4, Type-1 angiotensin II receptor (Homo sapiens, UniProt P30556); test: AT1 receptor antagonists, dose response, selectivity assay for APJ receptor antagonist project, cell-based, uHTS hits (AID 463214); assay type: functional;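 further: antagonist potency against angiotensin II stimulated AT1 response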
# T4 sequence (P30556 whole entry): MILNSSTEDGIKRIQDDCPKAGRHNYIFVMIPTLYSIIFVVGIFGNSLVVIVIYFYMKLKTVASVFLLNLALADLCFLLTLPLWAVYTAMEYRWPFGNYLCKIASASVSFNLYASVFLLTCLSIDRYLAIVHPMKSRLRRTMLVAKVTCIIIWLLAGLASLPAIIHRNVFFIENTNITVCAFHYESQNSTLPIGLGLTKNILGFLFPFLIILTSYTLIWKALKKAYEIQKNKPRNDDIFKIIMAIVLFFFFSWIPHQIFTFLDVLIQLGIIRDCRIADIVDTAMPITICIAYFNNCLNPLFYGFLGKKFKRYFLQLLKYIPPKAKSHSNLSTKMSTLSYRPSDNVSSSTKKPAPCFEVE
# [9] = biological target: Disintegrin and metalloproteinase domain-containing protein 17 (Homo sapiens, UniProt P78536); test: exosite inhibitors of ADAM17, dose response, biochemical (AID 743260)
# Disintegrin and metalloproteinase domain-containing protein 17, sequence (P78536 whole entry, the tested form may be a part): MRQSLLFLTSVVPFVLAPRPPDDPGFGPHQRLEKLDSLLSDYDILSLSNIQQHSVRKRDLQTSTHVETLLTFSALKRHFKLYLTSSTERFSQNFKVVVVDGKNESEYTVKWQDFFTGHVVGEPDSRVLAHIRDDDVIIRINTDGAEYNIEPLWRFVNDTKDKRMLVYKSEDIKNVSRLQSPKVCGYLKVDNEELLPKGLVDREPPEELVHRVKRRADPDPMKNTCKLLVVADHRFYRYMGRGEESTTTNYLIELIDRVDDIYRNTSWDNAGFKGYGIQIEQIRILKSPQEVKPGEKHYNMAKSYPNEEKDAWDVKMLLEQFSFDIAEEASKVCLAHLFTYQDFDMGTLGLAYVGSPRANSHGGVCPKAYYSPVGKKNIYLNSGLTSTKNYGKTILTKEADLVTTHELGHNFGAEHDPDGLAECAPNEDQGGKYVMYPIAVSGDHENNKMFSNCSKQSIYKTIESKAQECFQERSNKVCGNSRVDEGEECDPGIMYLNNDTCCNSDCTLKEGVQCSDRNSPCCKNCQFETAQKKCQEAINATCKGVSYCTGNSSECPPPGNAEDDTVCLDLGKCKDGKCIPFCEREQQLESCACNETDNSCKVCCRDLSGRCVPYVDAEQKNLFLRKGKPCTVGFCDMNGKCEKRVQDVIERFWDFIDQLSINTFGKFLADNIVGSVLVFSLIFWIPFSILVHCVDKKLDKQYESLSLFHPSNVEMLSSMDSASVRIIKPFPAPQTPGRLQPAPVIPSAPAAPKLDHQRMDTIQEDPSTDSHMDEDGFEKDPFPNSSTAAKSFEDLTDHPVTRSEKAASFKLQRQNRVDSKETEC
# [10] = ADAM10 protease inhibitors, dose response, selectivity assay for ADAM17 exosite inhibitor project, biochemical, FRET peptide substrate, recombinant human ADAM10 (AID 743259);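 further: ADAM10 enzyme cleaving a FRET peptide substrate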
# [11] = inhibitors of intracellular T. cruzi replication, confirmation, NIH3T3 host cells, beta-gal luminescence (AID 2044); assay type: functional, cell-based;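 further: intracellular parasites grown in NIH/3T3 mouse fibroblasts as host cells; luminescent beta-galactosidase reporter signal from transgenic T. cruzi replicating inside host cells; inhibitors lower the luminescence signal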
# [12] = biological target: T5, Apoptotic protease-activating factor 1 (Homo sapiens, UniProt O14727); assay type: functional
# T5 sequence (O14727 whole entry): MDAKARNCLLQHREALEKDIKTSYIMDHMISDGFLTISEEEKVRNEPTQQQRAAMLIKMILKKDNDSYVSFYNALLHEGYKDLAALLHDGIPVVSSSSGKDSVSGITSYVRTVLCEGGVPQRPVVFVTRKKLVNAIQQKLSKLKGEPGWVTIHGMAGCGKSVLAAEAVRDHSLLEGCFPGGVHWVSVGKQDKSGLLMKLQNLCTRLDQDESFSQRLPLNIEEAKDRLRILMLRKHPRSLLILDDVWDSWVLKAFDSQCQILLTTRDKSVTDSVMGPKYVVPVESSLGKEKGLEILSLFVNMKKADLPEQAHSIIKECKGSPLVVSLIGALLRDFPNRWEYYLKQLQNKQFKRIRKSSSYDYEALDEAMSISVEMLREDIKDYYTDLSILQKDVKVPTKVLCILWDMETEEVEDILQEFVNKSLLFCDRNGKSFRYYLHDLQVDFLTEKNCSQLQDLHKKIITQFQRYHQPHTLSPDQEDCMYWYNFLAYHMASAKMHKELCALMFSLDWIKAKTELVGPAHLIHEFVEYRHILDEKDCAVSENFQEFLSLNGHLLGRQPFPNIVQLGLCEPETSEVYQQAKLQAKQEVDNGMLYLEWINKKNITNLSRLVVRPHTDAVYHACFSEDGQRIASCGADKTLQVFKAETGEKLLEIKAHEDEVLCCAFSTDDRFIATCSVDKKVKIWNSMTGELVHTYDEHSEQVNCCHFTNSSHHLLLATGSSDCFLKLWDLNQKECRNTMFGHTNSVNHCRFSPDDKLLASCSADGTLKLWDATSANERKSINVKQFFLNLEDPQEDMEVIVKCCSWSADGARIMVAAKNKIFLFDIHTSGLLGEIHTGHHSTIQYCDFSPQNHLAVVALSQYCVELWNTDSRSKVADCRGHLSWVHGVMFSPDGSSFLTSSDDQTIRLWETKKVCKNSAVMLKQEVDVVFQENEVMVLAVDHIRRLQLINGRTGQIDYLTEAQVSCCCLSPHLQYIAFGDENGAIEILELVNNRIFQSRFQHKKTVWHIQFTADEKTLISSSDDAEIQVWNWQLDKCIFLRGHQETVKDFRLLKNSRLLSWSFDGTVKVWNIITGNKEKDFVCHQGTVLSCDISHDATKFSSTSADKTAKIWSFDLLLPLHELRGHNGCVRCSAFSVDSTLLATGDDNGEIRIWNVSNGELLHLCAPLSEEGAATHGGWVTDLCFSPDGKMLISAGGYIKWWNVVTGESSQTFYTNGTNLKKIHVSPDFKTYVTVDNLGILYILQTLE
# [13] = microbe, parasite or virus in culture; assay type: functional; conditions: Mycobacterium tuberculosis
# [14] = cytotoxicity toward NIH3T3 fibroblasts, dose response, counter-screen, cell-based, ATP luminescence, mouse fibroblasts (AID 2010); assay type: functional;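 further: cells exposed to compound for about 90 hours before reading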
# [15] = biological target: Paired box protein Pax-8 (Homo sapiens, UniProt Q06710); test: inhibitors of PAX8-driven TPO luciferase reporter, dose response, RMG-I cells, cherry-pick (AID 687027); assay type: functional, cell-based;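 further: luciferase reporter driven by Pax8 target thyroperoxidase promoter measured by SteadyGlo luminescence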
# Paired box protein Pax-8, sequence (Q06710 whole entry): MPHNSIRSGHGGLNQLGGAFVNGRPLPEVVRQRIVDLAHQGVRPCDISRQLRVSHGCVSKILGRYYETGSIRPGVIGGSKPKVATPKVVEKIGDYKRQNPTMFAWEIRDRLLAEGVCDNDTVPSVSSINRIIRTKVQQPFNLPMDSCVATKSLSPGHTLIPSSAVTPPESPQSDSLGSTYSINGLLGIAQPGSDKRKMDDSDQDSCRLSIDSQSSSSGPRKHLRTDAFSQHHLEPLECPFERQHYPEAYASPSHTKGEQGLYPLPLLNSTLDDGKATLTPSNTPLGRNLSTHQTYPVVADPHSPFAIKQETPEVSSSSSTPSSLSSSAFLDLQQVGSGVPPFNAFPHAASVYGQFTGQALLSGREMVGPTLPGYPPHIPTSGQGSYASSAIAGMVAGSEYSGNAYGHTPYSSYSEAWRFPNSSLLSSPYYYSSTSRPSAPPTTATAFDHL
# [16] = non-specific cell cytotoxicity, dose response, cytotoxicity control for PAX8 inhibitor project, plate reader, dry powder samples (AID 743021); assay type: functional, cell-based
# [17] = ZM109 Env clade C HIV-1 fusion inhibitors, dose response, HeLa effector, CEM target cells, luciferase, cherry-pick (AID 652058); assay type: functional, cell-based
# [18] = inhibitors of HIV Env-driven cell fusion, dose response, cherry-pick (AID 652057); assay type: functional, cell-based
# [19] = inhibitors of clade B AD8 Env fusion, dose response, cell-based, cherry-pick (AID 652062); assay type: functional;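 further: luciferase signal from cell-cell fusion driven by HIV-1 clade B AD8 Env; potency is for inhibitors of fusion seen as a drop in luminescence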
# [20] = cytotoxicity in OVCAR8 ovarian cancer cells, dose response, PAX8 project, cell-based, plate reader, dry powder samples (AID 743197); assay type: functional; conditions: OVCAR-8
# [21] = IGROV1 ovarian cancer cell cytotoxicity, dose response, PAX8 inhibitor project, plate reader, dry powder samples (AID 743043); assay type: functional, cell-based; conditions: IGROV-1
# [22] = biological target: T6, COUP transcription factor 2 (Homo sapiens, UniProt P24468); test: Luminescence-based cell-based high throughput dose response assay to identify inhibitors of COUP-TFII (NR2F2).; assay type: functional;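 further: HEK293 cells transiently cotransfected with COUP-TFII expression vector and reporter; luciferase reporter luminescence driven by COUP-TFII from the pX2-168 reporter plasmid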
# T6 sequence (P24468 whole entry): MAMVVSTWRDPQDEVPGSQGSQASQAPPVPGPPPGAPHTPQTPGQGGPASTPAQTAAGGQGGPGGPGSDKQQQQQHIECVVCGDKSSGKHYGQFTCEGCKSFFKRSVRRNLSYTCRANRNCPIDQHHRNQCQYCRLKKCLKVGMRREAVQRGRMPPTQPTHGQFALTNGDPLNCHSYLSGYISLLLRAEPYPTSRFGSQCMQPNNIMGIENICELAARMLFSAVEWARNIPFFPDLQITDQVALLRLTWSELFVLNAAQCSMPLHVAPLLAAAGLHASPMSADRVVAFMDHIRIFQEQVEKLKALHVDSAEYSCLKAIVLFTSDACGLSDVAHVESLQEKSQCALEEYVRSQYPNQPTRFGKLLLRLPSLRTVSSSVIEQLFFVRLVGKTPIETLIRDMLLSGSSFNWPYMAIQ
smiles,measurement,setting,value
CCOc1ccc(C(c2c(C)n[nH]c2O)c2c(C)n[nH]c2O)cc1OC,IC50,[1],43.6 µM (active)
same,AC50,[2],0.386 µM (active)
same,IC50,[3],32.9 µM (active)
same,EC50,[4],0.309 µM (active)
O=C(CCCC(=O)OCC(=O)c1ccc(Cl)cc1Cl)Nc1cc(C(F)(F)F)ccc1Cl,EC50,[5],> 40 µM (inactive)
same,AC50,[6],12.6 µM (inconclusive)
same,AC50,[7],inconclusive
same,IC50,[8],> 40 µM (not active)
O=C(COC(=O)/C=C/c1ccc(OC(F)F)cc1)Nc1ccc(S(=O)(=O)N2CCCC2)cc1,IC50,[9],> 69.5 µM (inactive)
same,IC50,[10],> 69.5 µM (inactive)
CC(C)(C)c1ccc(C(=O)NNc2cc(N3CCCCC3)nc(N3CCCCC3)n2)cc1,IC50,[1],0.384 µM (active)
same,EC50,[11],1.7 µM (active)
same,IC50,[12],3.59 µM (active)
same,CC50,[13],> 40 µM (active)
same,EC50,[14],> 60 µM (not active)
same,IC50,[3],0.796 µM (active)
Cc1cnc(C(=O)OC(C)C(=O)Nc2ccc3c(c2)OCCO3)cn1 (configuration not stated),IC50,[9],> 69.5 µM (inactive)
same,IC50,[10],> 69.5 µM (inactive)
COc1ccc(NC(=O)Nc2ccc3c(c2)C(=O)N([C@@H](C)CO)C[C@@H](C)[C@H](CN(C)Cc2ccc(C(F)(F)F)cc2)O3)cc1,AC50,[15],22 µM (active)
same,AC50,[16],41.7 µM (active)
COc1cccc(S(=O)(=O)N(C)C[C@@H]2Oc3cc(C#CCC(C)C)ccc3S(=O)(=O)N([C@H](C)CO)C[C@H]2C)c1,AC50,[17],36.9 µM (active)
same,AC50,[18],36.2 µM (active)
same,AC50,[19],8.75 µM (active)
O=C(CCN1CCCCC1)N[C@H]1CC[C@H](CCn2cc(-c3ccccc3)nn2)O[C@@H]1CO,AC50,[17],40.8 µM (active)
C[C@@H]1CCCCO[C@@H](CN(C)Cc2ccc(C(F)(F)F)cc2)[C@H](C)CN([C@H](C)CO)C(=O)c2cc(NS(=O)(=O)c3ccccc3)ccc2O1,AC50,[20],34 µM (active)
same,AC50,[15],6.14 µM (active)
same,AC50,[21],41.9 µM (active)
COc1cccc(CC(=O)N(Cc2ccccc2)c2ccccc2C(=O)Nc2cc(OC)ccc2OC)c1,IC50,[9],> 69.5 µM (inactive)
same,IC50,[10],> 69.5 µM (inactive)
O=C(CSc1cc(Cl)ccc1Cl)N/N=C/c1ccc[nH]1,IC50,[22],15 µM (inactive)
COC(=O)[C@H](CC(C)C)N1Cc2nnn(Cc3ccc(C)cc3)c2-c2cc(F)ccc2S1(=O)=O,IC50,[9],> 69.5 µM (inactive)
same,IC50,[10],> 69.5 µM (inactive)
